US20140315943A1, “COMBINATION THERAPY OF HSP90 INHIBITORY COMPOUNDS WITH MTOR/P13K INHIBITORS” (SYNTA PHARMACEUTICALS CORP., priority 2011, published 2014)
Read-outs that look alike come from different tables or passages of the source.

Experiments:
AKT and ERK = assay: Western blot of signaling pathways, AKT and ERK activity; format: cell-based; conditions: A375 melanoma cells
Experimental: (§1) A375 melanoma cells (BRAF^V600E mutant) were purchased from the American Type Culture Collection (Manassas, Va.) and grown in RPMI or DMEM, in the presence of fetal bovine serum (10%), 2 mM L-glutamine and antibiotics (100 IU/ml penicillin and […] streptomycin) purchased from Sigma Aldrich. Cells were maintained at 37° C., 5% CO2 atmosphere.
(§2) Cells, treated with compound for 24 hr, were lysed in RIPA buffer (CST, Danvers, Mass., USA) on ice and clarified by centrifugation. Equal amounts of proteins were resolved by SDS-PAGE and immunoblotted with indicated antibodies. The antigen-antibody complex was visualized and quantitated using an Odyssey system (LI-COR, Lincoln, Nebr., USA).

4EBP1 = assay: Western blot, 4EBP1 dephosphorylation; format: cell-based; conditions: A375 melanoma cells
Experimental: as §1, §2

MEK = assay: Western blot, feedback activation of MEK; format: cell-based; conditions: melanoma cells, FIG. 5
Experimental: as §1, §2

[1] = test system: androgen receptor, AKT, PARP; assay: Western blot in LNCaP cells: androgen receptor, AKT, PARP cleavage; format: cell-based; conditions: FIG. 2
Excerpt: as §2

B-raf = conditions: cited from earlier work
[2] = test system: androgen receptor (AR), Akt; assay: Everolimus-induced AR expression and Akt activity, apoptosis (FIG. 1); format: cell-based; conditions: in combination with everolimus
Excerpt: as §2

Row | SMILES | AKT and ERK activity (AKT and ERK) | dephosphorylation of 4EBP1 (4EBP1) | feedback activation of MEK (MEK) | Akt deactivation [1] | B-raf degradation (B-raf; A375 (V600E) versus CHL cells (wild type B-raf)) | B-raf degradation (B-raf; B-raf mutants E586K and L597V) | B-raf degradation (B-raf; B-raf mutants V600D, G469A, G469E, G596R, G466V, G594V in COS cells) | Inhibition of AKT (AKT and ERK; Western blot, FIG. 4) | apoptosis [2] | everolimus-induced AR expression and Akt activity [2]
1 | Cn1c(=O)n(-c2ccc(C(C)(C)C#N)cc2)c2c3cc(-c4cnc5ccccc5c4)ccc3ncc21 [BEZ235, 2-methyl-2-[4-[3-methyl-2-oxo-8-(quinolin-3-yl)-2,3-dihydroimidazo[4,5-c]quinolin-1-yl]phenyl]propionitrile] | enhanced the activity of AKT and ERK | sufficient to dephosphorylate 4EBP1 | feedback activation of MEK observed | able to deactivate Akt | – | – | – | – | – | –
2 | C=CCNC1=C2C[C@@H](C)C[C@H](OC)[C@H](O)[C@@H](C)/C=C(\C)[C@H](OC(N)=O)[C@@H](OC)/C=C\C=C(/C)C(=O)NC(=CC1=O)C2=O [Compound 17AAG] | – | – | – | – | B-raf was degraded more rapidly than in CHL cells | not sensitive to degradation | degraded more rapidly than wild type B-raf | – | – | –
3 | CC(C)c1cc(-c2nnc(O)n2-c2ccc3c(ccn3C)c2)c(O)cc1O [ganetespib, 3-(2,4-DIHYDROXY-5- ISOPROPYL-PHENYL)-4-(1- METHYL-INDOL-5-YL)-5- HYDROXY-[1,2,4] TRIAZOLE] | effective in disrupting AKT and ERK activity | could not completely dephosphorylate 4EBP1 | – | – | – | – | – | blocked by lower concentrations of ganetespib compared to BEZ-235 | increased apoptosis | sufficient in blocking everolimus-induced AR expression and Akt activity
